Reference: patent US10195285B2, “AGTR1 aptamer-anticancer drug complex for cancer cell chemotherapy” (KOREA UNIVERSITY RESEARCH AND BUSINESS FOUNDATION, priority 2016, dated 2019)
{SH} = thiol group (3'-OH replaced by SH), used for disulfide linkage to a drug

Assays:
[1] = system: AGTR1-positive breast cancer MCF7 cell line (MCF7-AGTR1); assay: p-His3 (mitotic arrest marker) ICC/confocal in co-culture, AGTR1-positive cells; type: cell-based, human; details: 10 nM, 24 hr; co-culture 1:1 with BT474; HER2-not-expressed cells = MCF7-AGTR1
Method: (§1) (1) As produced in Example 1, the AGTR1-positive breast cancer MCF7 cell line (MCF7-AGTR1) and the AGTR1-negative breast cancer BT474 cell line (typically, MCF7 is a HER2-negative breast cancer cell line and BT474 is a HER2-positive breast cancer cell line) were co-cultured at a ratio of 1:1, and HER2 and a mitotic arrest marker, namely phospho-Histone H3 (p-[…]), were stained with ICC, the nuclei of which were stained with DAPI, and were then treated with a control (DMSO), DM1, and Aptamer-DM1 at a concentration of 10 nM for 24 hr. Thereafter, the nuclei (blue), p-[…] (green), and HER2 (red) were imaged using a confocal microscope. The number of cells in which p-[…] was detected was quantified based on whether or not AGTR1 was expressed. During the staining procedure, the MCF7-AGTR1 and BT474 cells cultured on 8-well chamber slides were fixed with 4% paraformaldehyde, washed with PBS, and cultured for 10 min with 0.2% Triton X-100. Thereafter, the cells were cultured overnight at 4° C. with primary antibodies in an antibody dilution buffer and then cultured at room temperature for 2 hr with fluorescence-conjugated secondary antibodies. Thereafter, the cells were mounted on ProLong Gold Antifade Reagent containing DAPI (4',6'-diamidine-2'-phenylindole dihydrochloride).

[2] = system: AGTR1-negative breast cancer BT474 cell line; assay: p-His3 (mitotic arrest marker) ICC/confocal in co-culture, AGTR1-negative cells; type: cell-based, human; details: 10 nM, 24 hr; co-culture 1:1 with MCF7-AGTR1; HER2-expressed cells = BT474
Method: as §1

[3] = system: AGTR1-positive breast cancer cell line (MCF7-AGTR1); assay: Apoptosis rate (sub-G1%) by PI DNA content flow cytometry, AGTR1-positive cells; type: cell-based, human; details: 10 nM, 48 hr
Method: (§2) (1) The AGTR1-positive breast cancer cell line (MCF7-AGTR1) and the AGTR1-negative breast cancer cell line (BT474) were treated with a control (DMSO), DM1, Aptamer, and Aptamer-DM1 at a concentration of 10 nM for 48 hr, after which the cells were acquired and fixed with 95% ethanol containing 0.5% Tween-20 for 24 hr and cultured for 30 min with propidium iodide (PI, 50 μg/ml) and RNase (50 μg/ml). Thereafter, the apoptosis rate (sub-G1%) of cancer cells was measured through DNA content analysis using flow cytometry.
(§3) (2) Typically, the cell cycle includes, depending on the amount of DNA in cells, G1 (cell growth phase), S (cell replication phase), and G2/M (cell mitotic phase). […] The results of apoptosis are represented by the percentage of sub-G1 in the cell cycle.

[4] = system: AGTR1-negative breast cancer cell line (BT474); assay: Apoptosis rate (sub-G1%) by PI DNA content flow cytometry, AGTR1-negative cells; type: cell-based, human; details: 10 nM, 48 hr
Method: as §2, §3

[5] = system: MCF7-AGTR1 cancer cells; assay: Tumor volume in breast cancer disease animal model; type: in vivo, BALB/c nude mice; details: 0.75 mg/kg intraperitoneally three times a week, measured for 3 weeks
Method: (1) Starting from the 4th day after MCF7-AGTR1 cancer cells (3×10^6 cells) were inoculated into the fourth mammary fat pads of immunodeficient 6-week-old female BALB/c nude mice, Aptamer (0.75 mg/kg) and Aptamer-DM1 (0.5 mg/kg, 0.75 mg/kg) were intraperitoneally administered three times a week. Then, the tumor volume was measured for 3 weeks. The body weights of mice were measured for 3 weeks. The tumor volume (V) was measured using a caliper and calculated according to V=(length×width^2)/2. In a Terminal deoxynucleotidyl transferase dUTP Nick End Labeling (TUNEL) assay, the tumors were removed from the mice, fixed in 10% neutral buffered formalin, and embedded in paraffin. The 4 μm thick tissue section was mounted on a positively charged glass slide, deparaffinized with xylene, and […] through a graded alcohol series. After antigen retrieval, the above tissue section was boiled in a citric acid buffer (pH 6.0) and immunofluorescence was performed. In situ TUNEL was performed on the above tissue section using a TUNEL kit (Roche Applied Sciences, Penzberg, GER), and the images thereof were obtained using a confocal scanning microscope.

[6] = system: AGTR1-overexpressed SK-BR-3; assay: Confocal imaging of Cy3-coupled aptamers binding to / internalizing in AGTR1-positive cells; type: cell-based, human; details: 500 nM Cy3-coupled aptamer, 10^7 cells, room temperature; compared among SEQ ID NOS:1 to 6
Method: 1) 100 μl (10^7 cells) of target cells, namely AGTR1-overexpressed SK-BR-3, and 100 μl of 500 nM aptamer were reacted at room temperature and imaged using a confocal microscope. The aptamers have respective base sequences of SEQ ID NOS:1 to 6, the end of each of which is coupled with a fluorescence dye Cy3.

For `COc1cc2cc(c1Cl)N(C)C(=O)C[C@H](OC(=O)[C@H](C)N(C)C(C)=O)[C@]1(C)O[C@H]1[C@H](C)[C@@H]1C[C@@](O)(NC(=O)O1)[C@H](OC)/C=C/C=C(\C)C2` [DM1, maytansine], which “expression of p-His3 (confocal, FIG. 4)” value [1] is on record?
Its value is “observed regardless of whether HER2 was expressed or not”.

And the “expression of p-His3 (confocal, FIG. 4)” value [2]?
Its value is “observed regardless of whether HER2 was expressed or not”.

What about the “apoptosis rate (sub-G1%) (FIG. 6)” value [3] of the same molecule?
Its value is “relatively high”.

What about the “apoptosis rate (sub-G1%) (FIG. 6)” value [4] of the same molecule?
The value was “relatively high”.

For “Aptamer: DNA aptamer 5'-AAGTCGTCTTTGCCAAATACCGGTCTGTCGGTGGGTATTG-3' (SEQ ID NO:4) with thiol group introduced at the 3' terminus (DNA, 3' {SH}, backbone not given here)”, which “apoptosis rate (sub-G1%) (FIG. 6)” value [3] is on record?
The value was “remarkably low”.

And the “apoptosis rate (sub-G1%) (FIG. 6)” value [4]?
The value was “remarkably low”.

What about the “growth of tumors (tumor volume, FIG. 7)” value [5] of the same molecule?
The value was “partially inhibited”.

How did the “internalization / fluorescence intensity (confocal, FIG. 3)” value [6] turn out when “SEQ ID NO:4: ssDNA aptamer AAGTCGTCTTTGCCAAATACCGGTCTGTCGGTGGGTATTG; Cy3-coupled in the confocal test (DNA, backbone not given here; further chemistry not fully specified)” was run?
The value was “strongest fluorescence intensity”.
